Results: US11919965B2, “Methods of treating multiple myeloma with bispecific anti-BCMA x anti-CD3 antibodies” (Regeneron Pharmaceuticals, Inc., priority 2019, dated 2024)
Read-outs that look alike come from different tables or passages of the source.

System: primary cynomolgus monkey CD138+ plasma cells
Assay: Autologous T cell-mediated killing of plasma cells and T cell activation (% CD25 upregulation)
Format: cell-based
Procedure: The specific killing of enriched CD138^+ human or cynomolgus monkey plasma cells by unstimulated autologous T cells was assessed by flow cytometry. Human or cynomolgus bone marrow aspirates and blood were provided within 24 hours of harvest. CD138^+ plasma cells were enriched from bone marrow by positive selection using the EasySep Human CD138^+ Positive Selection kit according to the manufacturer's instructions. PBMC from whole blood were isolated by density separation. PBMC were labeled with 1 μM of VYBRANT™ CFDA-SE fluorescent tracking dye. […] At the end of the culture, surviving CD138^+ plasma cells were analyzed by flow cytometry, utilizing fixable LIVE/DEAD dye and plasma cell specific cell surface markers. Percent viability was normalized to control condition (plasma cells in the presence of PBMC only). T cell activation was assessed by flow cytometry. Activation is reported as the percentage of CD2^+/CD4^+ or CD2^+/CD8^+/CD16^− T cells expressing CD25. Percent T cell activation was normalized to control condition (plasma cells in the presence of PBMC only).

REGN5458: anti-BCMA×anti-CD3 bispecific antibody: mAb21581 BCMA heavy chain, mAb7221G CD3 heavy chain and common light chain; SEQ ID NOs 126, 127, 129
T Cell Activation (% CD25 Upregulation) CD8+ T cells % Activation (Cynomolgus Monkey Donor 1 plasma cells, autologous T cells, maximum): 12% | EC50 (Cynomolgus Monkey Donor 1 plasma cells, autologous T cells, read-out: T Cell Activation (% CD25 Upregulation) CD8+ T cells EC50): 0.0224 µM | T Cell Activation (% CD25 Upregulation) CD4+ T cells % Activation (Cynomolgus Monkey Donor 2 plasma cells, autologous T cells, maximum): 16% | EC50 (Cynomolgus Monkey Donor 2 plasma cells, autologous T cells, read-out: T Cell Activation (% CD25 Upregulation) CD4+ T cells EC50): ~0.0181 µM | maximum percent T cell activation, CD8+ T cells (donor 1): 12% | EC50 (donor 1, read-out: EC50, CD4+ T cell activation): 0.0281 µM | EC50 (donor 1, read-out: EC50, CD8+ T cell activation): 0.0224 µM | maximum percent T cell activation, CD4+ T cells (donor 2): 16% | EC50 (donor 2, read-out: EC50, CD4+ T cell activation): 0.0181 µM | EC50 (donor 2, read-out: EC50, CD8+ T cell activation): 0.0767 µM
